Measurements as given in PubChem BioAssay AID2202554 (NIEHS Division of Translational Toxicology (DTT)).
Records with an inconclusive call do not appear. The source made the active and inactive calls. No rule for the calls is given here.

System: S. typhimurium/E. coli reverse mutation, colony counts
Test: Bacterial reverse mutation test (aka Ames test) summary data
In short: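 S. typhimurium his⁻ strains (TA97–TA1538) and E. coli WP2 uvrA pKM101 trp⁻, dosed over a range with or without rat, hamster or mouse liver S9. Preincubated 20 min at 37° C (or plate incorporation), plated in agar, incubated usually two days. Revertant colonies counted against negative controls.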

Row | Structure (SMILES) | outcome
1 | O=C1C(c2[nH]c3ccc(S(=O)(=O)O)cc3c2O)=Nc2ccc(S(=O)(=O)O)cc21 | active; positive
2 | CC(=O)C(C)=NO | inactive; negative
3 | C=CCO | inactive; negative
4 | CNc1ccc(N(CCO)CCO)cc1[N+](=O)[O-] | active; positive
5 | CCCCOCCOP(=O)(OCCOCCCC)OCCOCCCC | inactive; negative
6 | Cl | inactive; negative
7 | OC[C@@H](O)[C@@H](O)[C@H](O)[C@H](O)CO | inactive; negative
8 | CCN(CC)CCN1C(=O)CN=C(c2ccccc2F)c2cc(Cl)ccc21 | inactive; negative
9 | CCCC(=O)Cl | active; weakly positive
10 | C1CN(CCOCCN2CCOCC2)CCO1 | inactive; negative
11 | NC(=O)CC(N)=O | inactive; negative
12 | CCOc1ccc2nc(N)sc2c1 | active; positive
13 | Nc1ccc([N+](=O)[O-])c(N)c1 | active; positive
14 | COC(=O)C1=C(C)NC(C)=C(C(=O)OC)C1c1ccccc1[N+](=O)[O-] | inactive; negative
15 | CC(C)CC(C)Nc1ccc(Nc2ccccc2)cc1 (centres undefined) | inactive; negative
16 | COC(=O)NC(=S)Nc1ccccc1NC(=S)NC(=O)OC | active; positive
17 | Clc1c(Cl)c(Cl)c2c(c1Cl)Oc1c(Cl)c(Cl)c(Cl)c(Cl)c1O2 | inactive; negative
18 | CS(=O)(=O)OCCCCOS(C)(=O)=O | active; positive
19 | CCOC=O | inactive; negative
20 | CC(=O)c1ccccc1[N+](=O)[O-] | inactive; negative
21 | Cc1ccncc1 | inactive; negative
22 | CCOC(N)=O | active; positive
23 | CCCCOC(=O)COc1cc(Cl)c(Cl)cc1Cl | inactive; negative
24 | Cc1ccc(N=C=O)cc1N=C=O | active; positive
25 | COC[CH2][Hg+] | inactive; negative
26 | O=S(=O)(O)C(F)(F)C(F)(F)C(F)(F)C(F)(F)C(F)(F)C(F)(F)C(F)(F)C(F)(F)F | inactive; negative

Row | Structure (SMILES) | outcome
27 | O=S(=O)(O)c1ccc(N=Nc2c(O)ccc3cc(S(=O)(=O)O)ccc23)cc1 | inactive; negative
28 | CCCC=C(C=O)CC | inactive; negative
29 | O=C(Nc1ccccc1SSc1ccccc1NC(=O)c1ccccc1)c1ccccc1 | inactive; negative
30 | C=CC(=O)OCC(C)C | inactive; negative
31 | Cc1ccc(O)c(C)c1 | active; weakly positive
32 | CCCCCCC[CH2][Sn]1([CH2]CCCCCCC)[O]C(=O)C=CC(=O)[O]1 | inactive; negative
33 | [Co] | active; positive
34 | CN(C)CCC(c1ccccc1)c1ccccn1 (centres undefined) | inactive; negative
35 | O=C1C2(Cl)C3(Cl)C4(Cl)C(Cl)(Cl)C5(Cl)C3(Cl)C1(Cl)C5(Cl)C24Cl (centres undefined) | inactive; negative
36 | OC(O)C(Cl)(Cl)Cl | active; positive
37 | Nc1ncnc2c1ncn2[C@H]1CC[C@@H](CO)O1 | active; positive
38 | OCC#CCO | inactive; negative
39 | O=C(O)c1ccccc1 | inactive; negative
40 | Oc1ccc(Cl)c(Cl)c1 | inactive; negative
41 | Cc1cc(O)ccc1Cl | inactive; negative
42 | CC(CC(=O)O)C(=O)O (centres undefined) | inactive; negative
43 | CCCNCCC | inactive; negative
44 | OCC(O)CI (centres undefined) | active; positive
45 | NO | active; weakly positive
46 | O=C(CCl)c1ccc(Cl)cc1Cl | active; positive
47 | Nc1ccc(S(=O)(=O)O)cc1 | inactive; negative
48 | O=C(O)CN(CC(=O)O)CC(=O)O | inactive; negative
49 | CC(C)CO | inactive; negative
50 | CC(=O)c1ccncc1 | inactive; negative
51 | ClC/C=C/CCl | active; positive
52 | CC(C)(Cl)Cl | inactive; negative

Row | Structure (SMILES) | outcome
53 | Nc1cccc(O)c1 | active; positive
54 | O=Nc1ccc(Nc2ccccc2)cc1 | active; weakly positive
55 | CCCC(C)=O | inactive; negative
56 | CCCCCCCCn1sccc1=O | inactive; negative
57 | Nc1ccc(N)cc1 | active; positive
58 | CC(=O)CC(C)(C)O | inactive; negative
59 | CC(=O)c1ccc(Cl)c(Cl)c1Cl | active; positive
60 | Cc1ccccc1C(OCCN(C)C)c1ccccc1 (centres undefined) | inactive; negative
61 | C[C@H]1CCC[C@H](O)CCCCCc2cc(O)cc(O)c2C(=O)O1 | inactive; negative
62 | C=C(C)C(=O)OCCC | inactive; negative
63 | COC(=O)c1ccccc1C(=O)OC | inactive; negative
64 | O=C1Nc2ccc(S(=O)(=O)O)cc2C1=O | active; positive
65 | N#CCCC(Br)(C#N)CBr (centres undefined) | inactive; negative
66 | C=CCOC(C)=O | active; positive
67 | O=C/C=C/c1ccccc1 | active; weakly positive
68 | c1ccc2c(c1)c1cccc3ccc4cccc2c4c31 | active; positive
69 | CCCCCNCCCCC | inactive; negative
70 | CCCCCCCC/C=C\CCCCCCCC(=O)O (tested in a mixture with another compound) | inactive; negative
71 | Cc1cnc[nH]1 | inactive; negative
72 | ClC(Cl)Br | inactive; negative
73 | O=C(O)CBr | active; positive
74 | CC(C)CON=O | active; positive
75 | c1ccc(O[Si](Oc2ccccc2)(Oc2ccccc2)Oc2ccccc2)cc1 | inactive; negative
76 | OCC=CCO | active; positive
77 | Oc1cc(Cl)c(Cl)c(Cl)c1 | inactive; negative
78 | CCCC(=O)OCC | inactive; negative

Row | Structure (SMILES) | outcome
79 | OCc1ccccc1 | inactive; negative
80 | CCCBr | inactive; negative
81 | CC(C)(c1ccc(OCC2CO2)cc1)c1ccc(OCC2CO2)cc1 (centres undefined) | active; positive
82 | CC(=O)C=Cc1ccco1 | inactive; negative
83 | Clc1cc(Cl)c(Cl)cc1Cl | inactive; negative
84 | Nc1ccc(N=Nc2cccc(N=Nc3ccc(N)cc3N)c2)c(N)c1 | active; positive
85 | COc1ccc(CCC(=O)c2c(O)cc(O[C@@H]3O[C@H](CO)[C@@H](O)[C@H](O)[C@H]3O[C@@H]3O[C@@H](C)[C@H](O)[C@@H](O)[C@H]3O)cc2O)cc1O | inactive; negative
86 | CN1CCCC1=O | inactive; negative
87 | CC(=O)OCCC(C)C | inactive; negative
88 | CC(C)CCON=O | active; positive
89 | Cc1ccc(N)c(C)c1 | active; positive
90 | NCCCOCCOCCOCCCN | inactive; negative
91 | CCOC(=O)CC(C)O (centres undefined) | inactive; negative
92 | Clc1c(Cl)c(Br)c2c(c1Cl)-c1nc-2nc2[n-]c(nc3nc(nc4[n-]c(n1)c1c(Cl)c(Br)c(Cl)c(Br)c41)-c1c(Cl)c(Cl)c(Br)c(Cl)c1-3)c1c(Br)c(Cl)c(Br)c(Cl)c21.[Cu+2] | active; positive
93 | Oc1c(Cl)c(Cl)c(Cl)c(Cl)c1Cl | inactive; negative
94 | O=C(O)CCC(=O)OC[C@@H](NC(=O)C(Cl)Cl)[C@H](O)c1ccc([N+](=O)[O-])cc1 | inactive; negative
95 | CCCCC(CC)COCC1CO1 (centres undefined) | active; positive
96 | CCC(C)Nc1ccc(NC(C)CC)cc1 (centres undefined) | inactive; negative
97 | CNC=O | inactive; negative
98 | O=[N+]([O-])c1cc(C(F)(F)F)cc([N+](=O)[O-])c1Cl | inactive; negative
99 | OCCBr | active; positive
100 | O=C(O)C(Cl)(Cl)Cl | inactive; negative
101 | COc1cc2c(cc1OC)[C@@]13CCN4CC5=CCO[C@H]6CC(=O)N2[C@H]1[C@H]6[C@H]5C[C@H]43 | inactive; negative
102 | O=NO | active; positive
103 | CC(=O)OO | inactive; negative
104 | Cc1cc(-c2ccc(N=Nc3ccc4c(S(=O)(=O)O)cc(S(=O)(=O)O)c(N)c4c3O)c(C)c2)ccc1N=Nc1ccc2c(S(=O)(=O)O)cc(S(=O)(=O)O)c(N)c2c1O | active; positive

Row | Structure (SMILES) | outcome
105 | CCC[N+](CCC)(CCC)CCC | active; weakly positive
106 | NC(Cc1ccc(F)cc1)C(=O)O (centres undefined) | inactive; negative
107 | CC(C)(C)OOC(C)(C)C | inactive; negative
108 | CCCCCCCCCCCC(=O)N(CCO)CCO | inactive; negative
109 | O=C1C=CCCC1 | inactive; negative
110 | O=[N+]([O-])c1ccc(Cl)c(Cl)c1 | active; positive
111 | COc1ccc(N)c(OC)c1 | active; positive
112 | Nc1ccc(N=Nc2ccc(-c3ccc(N=Nc4c(S(=O)(=O)O)cc5cc(S(=O)(=O)O)c(N=Nc6ccccc6)c(O)c5c4N)cc3)cc2)c(N)c1 | active; positive
113 | N#CCC#N | inactive; negative
114 | CC(=O)OC1CC(C)OC(C)O1 (centres undefined) | active; positive
115 | O=C(O)C(F)(F)C(F)(F)C(F)(F)C(F)(F)C(F)(F)F | inactive; negative
116 | CC(CCl)OC(C)CCl (centres undefined) | active; positive
117 | COc1ccc([N+](=O)[O-])cc1N | active; positive
118 | O=C(O)C(Cl)(Br)Br | active; positive
119 | CCCOC(=O)c1cc(O)c(O)c(O)c1 | inactive; negative
120 | CCC(C(N)=O)(C(N)=O)c1ccccc1 | active; weakly positive
121 | c1ccc(-c2ccccc2)cc1 | inactive; negative
122 | O=[N+]([O-])c1c2ccccc2cc2ccccc12 | active; positive
123 | CC=C(C)C#N | inactive; negative
124 | COC(=O)Nc1cccc(OC(=O)Nc2cccc(C)c2)c1 | active; positive
125 | CCC(C)c1ccccc1O (centres undefined) | inactive; negative
126 | CCN(CC)c1ccc(N)cc1 | active; positive
127 | Nc1n[nH]c(N)n1 | inactive; negative
128 | CC1(C)S[C@@H]2[C@H](NC(=O)COc3ccccc3)C(=O)N2[C@H]1C(=O)O | inactive; negative
129 | CCCCC(CC)COC(=O)c1ccccc1C(=O)O (centres undefined) | inactive; negative
